The record followed here is patent publication US20260224536A1, “ARYL HETEROCYCLIC KV1.3 INHIBITOR, PREPARATION METHOD THEREFOR, AND USE THEREOF” (SHANGHAI SHENSHI WISE TECHNOLOGY CO., LTD., priority 2022, published 2026).

Structures are written as SMILES.

Kv1.3 potassium channel, sequence (P22001 whole entry): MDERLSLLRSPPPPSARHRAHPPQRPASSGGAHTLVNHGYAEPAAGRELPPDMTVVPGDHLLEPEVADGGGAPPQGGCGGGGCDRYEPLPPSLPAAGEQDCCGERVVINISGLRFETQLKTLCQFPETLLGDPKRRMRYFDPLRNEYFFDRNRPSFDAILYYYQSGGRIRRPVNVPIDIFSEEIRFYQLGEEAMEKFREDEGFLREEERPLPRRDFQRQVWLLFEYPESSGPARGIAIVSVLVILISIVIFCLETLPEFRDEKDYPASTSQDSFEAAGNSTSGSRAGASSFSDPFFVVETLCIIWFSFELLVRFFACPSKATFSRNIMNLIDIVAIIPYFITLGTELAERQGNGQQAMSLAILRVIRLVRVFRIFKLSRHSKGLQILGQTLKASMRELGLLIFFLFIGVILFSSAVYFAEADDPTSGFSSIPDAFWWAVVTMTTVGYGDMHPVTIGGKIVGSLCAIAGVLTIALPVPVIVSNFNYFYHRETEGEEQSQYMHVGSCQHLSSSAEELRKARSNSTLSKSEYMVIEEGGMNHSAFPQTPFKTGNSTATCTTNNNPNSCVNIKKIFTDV

For the assay, the target named is Kv1.3 potassium channel (Homo sapiens, UniProt P22001). The experiment in a line: Whole-cell patch-clamp assay for inhibitory activity against Kv1.3 (peak current). The settings on record: HEK293 cells stably expressing Kv1.3, patch-clamp. Type of assay: cell-based. The text has this:
The voltage stimulation protocol for recording whole-cell Kv1.X potassium currents via patch-clamp was as follows. After formation of a whole-cell seal, the cell membrane voltage was clamped at −80 mV, and then stepped to +40 mV for 500 ms. […] The test data were acquired by EPC-10 amplifier (HEKA) and stored in the PatchMaster (HEKA) software. Recording electrodes were drawn from capillary glass tubes using a microelectrode puller. Under an inverted microscope, the recording electrode was brought into contact with the cell surface by manipulating a microelectrode manipulator. Negative-pressure suction was applied to form a GΩ seal. After formation of the […], a rapid capacitance compensation was given. The application of negative pressure was continued to rupture the cell membrane, forming a whole-cell recording mode. Then, a slow capacitance compensation was given, and the membrane capacitance and series resistance were recorded. No current leakage compensation was provided. Once the whole-cell recorded Kv1.X current stabilized, drug administration was started. Each drug concentration was allowed to act for 5 min (or until the current reached a steady state) before the next concentration was tested. Multiple concentrations were tested for each test compound. The cover glass plated with the cells was placed in a recording bath of the inverted microscope. The test compound and the compound-free extracellular fluid were allowed to sequentially flow through the recording bath from low concentrations to high concentrations using a gravity perfusion method, thus acting on the cells, and liquid exchange was performed using a vacuum pump during recording. For each cell, the current detected in the compound-free extracellular liquid was used as its own control group. The test was independently repeated three times using at least three cells per concentration. All electrophysiological experiments were performed at room temperature. […] First, the peak current after the action of each drug concentration and the peak current of the blank control were standardized and then the inhibition rate corresponding to each drug concentration was calculated Subsequently, the mean, standard deviation (SD), and standard error (SE) were calculated for the inhibition rate corresponding to each concentration. Using the above equation, the IC50 value for each compound was calculated, and the dose-dependent effect was subjected to non-linear fitting, where IC50 is the half maximal inhibitory concentration. The IC50 calculation and the curve fitting were performed using the GraphPad Prism software.
(In general: Patch clamp records ionic current or voltage across a cell membrane.)
For orientation: IC50 means the concentration needed to halve the response being measured. The compound `Oc1ccc(Cl)c(Cl)c1[C@@H]1Cc2nnc([C@H]3CCOC3)n2C1` [Example 55, 3,4-dichloro-2-((S)-3-((R)-tetrahydrofuran-3-yl)-6,7-dihydro-5H-pyrrolo[2,1-c][1,2,4]triazol-6-yl)phenol] registered an IC50 of 12 nM.
With `Oc1ccc(Cl)c(Cl)c1[C@@H]1Cc2nnc([C@@H]3CCCNC3)n2C1` [Example 59, 3,4-dichloro-2-((S)-3-((R)-piperidin-3-yl)-6,7-dihydro-5H-pyrrolo[2,1-c][1,2,4]triazol-6-yl)phenol], 2.56 nM corresponded to half-maximal inhibition (IC50). This IC50 lies about 4.7-fold lower than the previous one.
To `Oc1ccc(Cl)c(Cl)c1[C@@H]1Cc2nnc([C@H]3C[C@H]4CC[C@@H]3O4)n2C1` [Example 60, 2-((S)-3-((1S,2R,4R)-7-Oxabicyclo[2.2.1]heptan-2-yl)-6,7-dihydro-5H-pyrrolo[2,1-c][1,2,4]triazol-6-yl)-3,4-dichlorophenol] belongs 27.6 nM; to `Oc1ccc(Cl)c(Cl)c1[C@@H]1Cc2nnc([C@H]3C[C@@H]4CC[C@H]3O4)n2C1` [Example 62, 2-((S)-3-((1R,2R,4S)-7-Oxabicyclo[2.2.1]heptan-2-yl)-6,7-dihydro-5H-pyrrolo[2,1-c][1,2,4]triazol-6-yl)-3,4-dichlorophenol], 16.4 nM.
To `C[C@]1(c2nnc3n2C[C@H](c2c(O)ccc(Cl)c2Cl)C3)CCOC1` [Example 65, 3,4-dichloro-2-((S)-3-((R)-3-methyltetrahydrofuran-3-yl)-6,7-dihydro-5H-pyrrolo[2,1-c][1,2,4]triazol-6-yl)phenol] belongs 51.7 nM; to `Oc1ccc(Cl)c(Cl)c1[C@@H]1Cc2nnc(C34COC(C3)C4)n2C1` [Example 66, (S)-2-(3-(2-Oxabicyclo[2.1.1]hexan-4-yl)-6,7-dihydro-5H-pyrrolo[2,1-c][1,2,4]triazol-6-yl)-3,4-dichlorophenol], 33.3 nM; to `Oc1ccc(Cl)c(Cl)c1[C@@H]1Cc2nnc(C3CCCC3)n2C1` [Example 67, (S)-3,4-Dichloro-2-(3-cyclopentyl-6,7-dihydro-5H-pyrrolo[2,1-c][1,2,4]triazol-6-yl)phenol], 10.2 nM.
To `Oc1ccc(Cl)c(Cl)c1[C@@H]1Cc2nnc([C@@H]3CCCOC3)n2C1` [Example 68, 3,4-Dichloro-2-((S)-3-((S)-tetrahydro-2H-pyran-3-yl)-6,7-dihydro-5H-pyrrolo[2,1-c][1,2,4]triazol-6-yl)phenol] belongs 16 nM; to `Oc1ccc(Cl)c(Cl)c1[C@@H]1Cc2nnc([C@@]34COCC3C4)n2C1` (stereo partly drawn) [Example 72, 2-((6S)-3-((1S)-3-Oxabicyclo[3.1.0]hexan-1-yl)-6,7-dihydro-5H-pyrrolo[2,1-c][1,2,4]triazol-6-yl)-3,4-dichlorophenol], 39.1 nM.
In turn, `Oc1ccc(Cl)c(Cl)c1[C@@H]1Cc2nnc([C@]34COCC3C4)n2C1` (stereo partly drawn) [Example 73, 2-((6S)-3-((1R)-3-oxabicyclo[3.1.0]hexan-1-yl)-6,7-dihydro-5H-pyrrolo[2,1-c][1,2,4]triazol-6-yl)-3,4-dichlorophenol] had an IC50 of 24.7 nM.
To `COc1cccc(-c2nnc3n2C[C@H](c2c(O)ccc(Cl)c2Cl)C3)c1` [Example 76, (S)-3,4-Dichloro-2-(3-(3-methoxyphenyl)-6,7-dihydro-5H-pyrrolo[2,1-c][1,2,4]triazol-6-yl)phenol] belongs 27.9 nM.
In turn, `COc1cccc(-c2nnc3n2C[C@@H](c2c(O)ccc(Cl)c2Cl)C3)c1` [Example 77, (R)-3,4-dichloro-2-(3-(3-methoxyphenyl)-6,7-dihydro-5H-pyrrolo[2,1-c][1,2,4]triazol-6-yl)phenol] yielded an IC50 of 45.2 nM. This IC50 lies about 1.6-fold higher than the previous one.
In turn, `Oc1ccc(Cl)c(Cl)c1[C@@H]1Cc2nnc(C3CCN(C4CCCCC4)CC3)n2C1` [Example 78, (S)-3,4-Dichloro-2-(3-(1-cyclohexylpiperidin-4-yl)-6,7-dihydro-5H-pyrrolo[2,1-c][1,2,4]triazol-6-yl)phenol] yielded an IC50 of 12.6 nM.
For `CC(C)N1CC[C@@H](c2nnc3n2C[C@H](c2c(O)ccc(Cl)c2Cl)C3)C1` [Example 80, 3,4-Dichloro-2-((S)-3-((R)-1-isopropylpyrrolidin-3-yl)-6,7-dihydro-5H-pyrrolo[2,1-c][1,2,4]triazol-6-yl)phenol] the value was 2.14 nM; for `CC(=O)N1CC[C@@H](c2nnc3n2C[C@H](c2c(O)ccc(Cl)c2Cl)C3)C1` [Example 81, 1-((R)-3-((S)-6-(2,3-Dichloro-6-hydroxyphenyl)-6,7-dihydro-5H-pyrrolo[2,1-c][1,2,4]triazol-3-yl)pyrrolidin-1-yl)ethan-1-one], 11.3 nM; for `CC(C)N1CCC(N2CC[C@@H](c3nnc4n3C[C@H](c3c(O)ccc(Cl)c3Cl)C4)C2)CC1` [Example 82, 3,4-Dichloro-2-((S)-3-((R)-1-(1-isopropylpiperidin-4-yl)pyrrolidin-3-yl)-6,7-dihydro-5H-pyrrolo[2,1-c][1,2,4]triazol-6-yl)phenol], 5.01 nM.
For `Oc1ccc(Cl)c(Cl)c1[C@@H]1Cc2nnc([C@@H]3CCN(C4CCOCC4)C3)n2C1` [Example 83, 3,4-Dichloro-2-((S)-3-((R)-1-(tetrahydro-2H-pyran-4-yl)pyrrolidin-3-yl)-6,7-dihydro-5H-pyrrolo[2,1-c][1,2,4]triazol-6-yl)phenol] the value was 3.99 nM; for `Cc1cc(-c2nnc3n2C[C@H](c2c(O)ccc(Cl)c2Cl)C3)ccn1` [Example 84, (S)-3,4-Dichloro-2-(3-(2-methylpyridin-4-yl)-6,7-dihydro-5H-pyrrolo[2,1-c][1,2,4]triazol-6-yl)phenol], 8.04 nM; for `CC(F)(F)c1nnc2n1C[C@H](c1c(O)ccc(Cl)c1Cl)C2` [Example 85, (S)-3,4-Dichloro-2-(3-(1,1-difluoroethyl)-6,7-dihydro-5H-pyrrolo[2,1-c][1,2,4]triazol-6-yl)phenol], 24.5 nM.
For `Oc1ccc(Cl)c(Cl)c1[C@@H]1Cc2nnc(C(F)(F)F)n2C1` [Example 86, (S)-3,4-Dichloro-2-(3-(trifluoromethyl)-6,7-dihydro-5H-pyrrolo[2,1-c][1,2,4]triazol-6-yl)phenol] the value was 25 nM; for `Oc1ccc(Cl)c(Cl)c1[C@@H]1Cc2nnc(CC(F)(F)F)n2C1` [Example 87, (S)-3,4-Dichloro-2-(3-(2,2,2-trifluoroethyl)-6,7-dihydro-5H-pyrrolo[2,1-c][1,2,4]triazol-6-yl)phenol], 20.7 nM.
On to `CC1(C)CC(c2nnc3n2CC(c2c(O)ccc(Cl)c2Cl)C3)CC(C)(C)N1` (stereo not shown) [Example 88, 3,4-Dichloro-2-(3-(2,2,6,6-tetramethylpiperidin-4-yl)-6,7-dihydro-5H-pyrrolo[2,1-c][1,2,4]triazol-6-yl)phenol], for which the IC50 was determined as 58.6 nM. This IC50 lies about 2.8-fold higher than the previous one.
For `CC1(C)CC(c2nnc3n2CC(c2c(O)ccc(Cl)c2Cl)C3)CCN1` (stereo not shown) [Example 89, 3,4-Dichloro-2-(3-(2,2-dimethylpiperidin-4-yl)-6,7-dihydro-5H-pyrrolo[2,1-c][1,2,4]triazol-6-yl)phenol] the value was 8.25 nM; for `Oc1ccc(Cl)c(Cl)c1[C@@H]1Cc2ncc(C3CCCC3)n2C1` [Example 90, (S)-3,4-Dichloro-2-(3-cyclopentyl-6,7-dihydro-5H-pyrrolo[1,2-a]imidazol-6-yl)phenol], 7.08 nM.
For `Oc1ccc(Cl)c(Cl)c1[C@H]1Cc2ncc(C3CCCC3)n2C1` [Example 91, (R)-3,4-dichloro-2-(3-cyclopentyl-6,7-dihydro-5H-pyrrolo[1,2-a]imidazol-6-yl)phenol] the value was 4.92 nM.
As to `CCc1cnc2n1C[C@H](c1c(O)ccc(Cl)c1Cl)C2` [Example 92, (S)-3,4-Dichloro-2-(3-ethyl-6,7-dihydro-5H-pyrrolo[1,2-a]imidazol-6-yl)phenol], inhibition was half-maximal at 5.51 nM (IC50). The IC50 values of the last two compounds are within 1.5-fold of each other.
As to `CCc1cnc2n1C[C@@H](c1c(O)ccc(Cl)c1Cl)C2` [Example 93, (R)-3,4-dichloro-2-(3-ethyl-6,7-dihydro-5H-pyrrolo[1,2-a]imidazol-6-yl)phenol], inhibition was half-maximal at 3.11 nM (IC50).
Take `CC(C)N1CCC(c2cnc3n2C[C@@H](c2c(O)ccc(Cl)c2Cl)C3)CC1` [Example 95, (R)-3,4-dichloro-2-(3-(1-isopropylpiperidin-4-yl)-6,7-dihydro-5H-pyrrolo[1,2-a]imidazol-6-yl)phenol]: the concentration for half-maximal inhibition (IC50) came to 6.06 nM.
To `COc1ccc(-c2cnc3n2CC(c2c(O)ccc(Cl)c2Cl)C3)cc1` (stereo not shown) [Example 96, 3,4-Dichloro-2-(3-(4-methoxyphenyl)-6,7-dihydro-5H-pyrrolo[1,2-a]imidazol-6-yl)phenol] belongs 51.6 nM; to `Cn1cc(-c2cnc3n2CC(c2c(O)ccc(Cl)c2Cl)C3)cn1` (stereo not shown) [Example 97, 3,4-Dichloro-2-(3-(1-methyl-1H-pyrazol-4-yl)-6,7-dihydro-5H-pyrrolo[1,2-a]imidazol-6-yl)phenol], 11.7 nM; to `CC(C)(C)n1cc(-c2cnc3n2CC(c2c(O)ccc(Cl)c2Cl)C3)cn1` (stereo not shown) [Example 98, 2-(3-(1-(tert-Butyl)-1H-pyrazol-4-yl)-6,7-dihydro-5H-pyrrolo[1,2-a]imidazol-6-yl)-3,4-dichlorophenol], 25.5 nM.
